# Columns and labels:
# M4 receptor = assay: Ca-dependent Cl response in Xenopus oocytes coexpressing M4 receptor and chimeric Gqα subunit (G11α/G14α); type: cell-based; conditions: Xenopus oocyte, chimeric Gqα subunit coexpressed, clamped at −60 mV by TEVC, FIG. 5
# Procedure: They were subjected to coexpression in Xenopus oocytes. […] Res. Commun. 201 (2), 894-901 (1994).
# Thereafter, oocytes were cultured.
# H2 receptor = H2 receptor (Homo sapiens, UniProt P25021); conditions: Xenopus oocyte
# Chain of H2 receptor (P25021 whole entry): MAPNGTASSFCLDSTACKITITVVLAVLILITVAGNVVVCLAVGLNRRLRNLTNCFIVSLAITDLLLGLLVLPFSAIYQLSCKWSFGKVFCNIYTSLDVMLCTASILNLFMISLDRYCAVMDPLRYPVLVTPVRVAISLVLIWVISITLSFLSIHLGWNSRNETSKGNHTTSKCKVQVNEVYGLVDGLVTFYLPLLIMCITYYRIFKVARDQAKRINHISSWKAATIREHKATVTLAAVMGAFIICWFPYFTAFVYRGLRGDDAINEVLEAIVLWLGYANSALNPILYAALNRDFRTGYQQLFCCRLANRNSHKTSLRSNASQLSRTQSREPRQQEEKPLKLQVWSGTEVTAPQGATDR
# Text: Oocytes removed from a female Xenopus were selected by a conventional method. RNA encoding the H1 and H2 receptors, M1 to M5 receptors, δ opioid receptors, or mGlu1 receptors that were synthesized in vitro were transfected into the selected oocyte together with RNA encoding a chimeric Gqα subunit constituted by a portion of the G11 protein α subunit and a portion of the G14 protein α subunit that was similarly synthesized. As a control, an oocyte to which RNA of the chimeric Gqα subunit was not to be transfected was prepared. Thereafter, oocytes were cultured.
# The cultured oocytes were clamped at −60 mV by TEVC. […] The occurrence of Ca-dependent Cl response was then assayed.
# RNA encoding the H2 receptor was transfected in the oocytes. Simultaneously or 24 hours thereafter, RNA encoding the chimeric Gqα subunit constituted by a portion of the G11α subunit and a portion of the G14α subunit was transfected therein. Thereafter, the ligand responses of these oocytes were assayed by the method described in Example 1.
"response generated by ligand, chimeric Gqα RNA transfected 24 hours after GPCR RNA compared with simultaneous transfection (H2 receptor; 10 μM ligand, FIG. 6)",Compound,response generated by ligand stimulus at various concentration levels (M4 receptor),"response generated by ligand stimulus at various concentration levels (H2 receptor; chimeric Gqα subunit coexpressed, clamped at −60 mV by TEVC, FIG. 5)"
,CC(=O)OCC[N+](C)(C)C [Ach],correlations between ligand concentration and size of response,
greatly increased,NCCc1c[nH]cn1 [histamine],,correlations between ligand concentration and size of response
